Source: patent publication US11046716B2, “Beta-lactamase inhibitors” (priority 2015, dated 2021)

Legend:
[1] = target: T1, AmpC (Enterobacter cloacae, UniProt P05364); test: β-lactamase enzyme inhibition assay, p99 AmpC (nitrocefin substrate); format: biochemical
T1 construct: made in house; host or cells: E. coli BL21(DE3)
Summary of the method: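 Untagged enzyme from E. coli BL21(DE3), purified by Capto S then Superdex 75; 15 min 37 °C preincubation with inhibitor; 10 min kinetic read; IC50 vs uninhibited wells.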

[2] = target: OXA-48 (UniProt Q6XEC0); test: β-lactamase enzyme inhibition assay, Class D oxacillinase; format: biochemical; conditions: read-out: OXA-48
[3] = target: T2, VIM-2 (Escherichia coli, UniProt Q5U7L7); test: β-lactamase enzyme inhibition assay, VIM-2 (nitrocefin substrate); format: biochemical; conditions: Class B; nitrocefin substrate, 486 nm; read-out: VIM-2
T2 construct: made in house; host or cells: E. coli BL21(DE3)
Summary of the method: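 Nitrocefin hydrolysis (100 μM final, A486 read for 10 min) by purified VIM-2 after a 15-min, 37° C enzyme–inhibitor preincubation. IC50 is the concentration halving initial hydrolysis rate, derived from percent inhibition against no-inhibitor wells.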

[4] = system: K. pneumoniae producing the Class D carbapenemase OXA-48; test: Broth microdilution MIC assay with meropenem, K. pneumoniae OXA-48; format: cell-based; conditions: Fixed Mero (meropenem) 4 μg/mL; K. p. 11978 OXA-48
Summary of the method: (§1)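 CLSI broth microdilution in cation-adjusted Mueller Hinton broth measured growth of β-lactamase-expressing strains, grown 3-5 h beforehand. The β-lactam partner was held at 4 μg/ml final while test compound was titrated 2-fold from 16 to 0.125 μg/mL final. After 16-20 h at 37° C, the compound MIC was determined by eye.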

[5] = system: E. coli expressing the Class A Extended Spectrum Beta-Lactamase (ESBL) CTX-M-15; test: Broth microdilution MIC assay with ceftazidime, E. coli CTX-M-15; format: cell-based; conditions: Fixed CAZ (ceftazidime) 4 μg/mL; E. coli ESBL4 CTX-M-15
Summary of the method: as §1

[6] = target: T3, SHV-5 (Klebsiella pneumoniae, UniProt P0A3M1); test: β-lactamase enzyme inhibition assay, SHV-5 (cefotaxime substrate); format: biochemical
T3 construct: made in house; host or cells: E. coli BL21(DE3)
T3 sequence (P0A3M1 22-286): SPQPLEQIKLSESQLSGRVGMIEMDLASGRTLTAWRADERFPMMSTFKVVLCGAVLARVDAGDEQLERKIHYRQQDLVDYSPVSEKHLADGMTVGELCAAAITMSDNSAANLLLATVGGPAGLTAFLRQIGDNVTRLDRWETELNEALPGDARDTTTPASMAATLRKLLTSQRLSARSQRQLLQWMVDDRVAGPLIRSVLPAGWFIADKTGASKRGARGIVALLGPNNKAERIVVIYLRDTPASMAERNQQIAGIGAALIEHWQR
Summary of the method: (§2)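 Untagged enzyme from E. coli BL21(DE3), purified by Capto S then Superdex 75; 15 min 37 °C preincubation with inhibitor; KPC-2 read with imipenem at 300 nm, SHV-5 with cefotaxime at 260 nm, OXA-1 with nitrocefin 100 μM final at 486 nm; 10 min kinetic read; IC50 vs uninhibited wells.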

[7] = system: E. cloacae expressing the Class C P99; test: Broth microdilution MIC assay with ceftazidime, E. cloacae P99; format: cell-based; conditions: Fixed CAZ (ceftazidime) 4 μg/mL; E. cl. 144200 p99 AmpC
Excerpt: To determine the ability of test compounds to potentiate the inhibition of the growth of bacterial strains that produce beta-lactamase enzymes in the presence of a β-lactam antibiotic, classic cell based broth microdilution MIC assays were employed. Six bacteria strains producing beta-lactamase enzymes were used: E. coli expressing the Class A Extended Spectrum Beta-Lactamase (ESBL) CTX-M-15, E. cloacae expressing the Class C P99, K. pneumoniae expressing the Class A carbapenemase KPC-2, P. aeruginosa expressing the Class B carbapenemase VIM-2, K. pneumoniae expressing the class A carbapenemase KPC-2 and the class B carbapenemase VIM-4, and K. pneumoniae producing the Class D carbapenemase OXA-48. The assay was conducted in Cation Adjusted Mueller Hinton Broth (CAMHB, BD #212322, BD Diagnostic Systems, Sparks, Md.). Bacteria strains were grown for 3-5 hours in CAMBH broth. Test compounds (Examples 1-94) were added to a microtiter plate in 2-fold serial dilutions in CAMHB in a final concentration range of 16 μg/mL to 0.125 μg/ml. An overlay of CAMHB containing a Beta-lactam was added to the compounds at a final static concentration of 4 μg/ml. […] In addition to the titration of test compounds the MICs of a panel of control beta-lactams is also tested to ensure the strains are behaving consistently from test to test. Once the test compound and antibiotics are added the plates can be inoculated according to CLSI broth microdilution method. After inoculation the plates are incubated for 16-20 hours at 37° C. then the Minimal Inhibitory Concentration (MIC) of the test compound is determined visually.
Using the methodology described above, examples of the current invention were evaluated for their ability to inhibit the growth of β-lactamase-producing bacteria in the presence of a β-lactam antibiotic.

[8] = system: K. pneumoniae expressing the Class A carbapenemase KPC-2; test: Broth microdilution MIC assay with meropenem, K. pneumoniae KPC-2; format: cell-based; conditions: Fixed Mero (meropenem) 4 μg/mL; K. p. 156319 KPC-3
Summary of the method: as §1

[9] = target: T4, KPC-2 (Klebsiella pneumoniae, UniProt Q9F663); test: β-lactamase enzyme inhibition assay, KPC-2 (imipenem substrate); format: biochemical; conditions: Class A; imipenem substrate, 300 nm; read-out: KPC-2
T4 construct: made in house; host or cells: E. coli BL21(DE3)
T4 sequence (Q9F663 25-293, looked up): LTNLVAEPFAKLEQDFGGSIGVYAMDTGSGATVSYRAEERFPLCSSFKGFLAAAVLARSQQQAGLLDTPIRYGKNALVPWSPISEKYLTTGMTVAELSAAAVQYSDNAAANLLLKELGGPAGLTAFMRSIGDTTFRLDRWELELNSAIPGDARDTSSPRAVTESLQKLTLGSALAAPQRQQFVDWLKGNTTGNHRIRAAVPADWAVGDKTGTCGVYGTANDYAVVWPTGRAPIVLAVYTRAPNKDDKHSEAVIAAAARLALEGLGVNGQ
Summary of the method: as §2

[10] = system: K. pneumoniae expressing the class A carbapenemase KPC-2 and the class B carbapenemase VIM-4; test: Broth microdilution MIC assay with meropenem, K. pneumoniae KPC-2 and VIM-4; format: cell-based; conditions: Fixed Mero (meropenem) 4 μg/mL; K. p. A-1797 KPC-2 VIM-4
Summary of the method: as §1

[11] = system: P. aeruginosa expressing the Class B carbapenemase VIM-2; test: Broth microdilution MIC assay with meropenem, P. aeruginosa VIM-2; format: cell-based; conditions: Fixed Mero (meropenem) 4 μg/mL; P. aerug. 2775 VIM-2
Summary of the method: as §1

T1 sequence (P05364 21-381): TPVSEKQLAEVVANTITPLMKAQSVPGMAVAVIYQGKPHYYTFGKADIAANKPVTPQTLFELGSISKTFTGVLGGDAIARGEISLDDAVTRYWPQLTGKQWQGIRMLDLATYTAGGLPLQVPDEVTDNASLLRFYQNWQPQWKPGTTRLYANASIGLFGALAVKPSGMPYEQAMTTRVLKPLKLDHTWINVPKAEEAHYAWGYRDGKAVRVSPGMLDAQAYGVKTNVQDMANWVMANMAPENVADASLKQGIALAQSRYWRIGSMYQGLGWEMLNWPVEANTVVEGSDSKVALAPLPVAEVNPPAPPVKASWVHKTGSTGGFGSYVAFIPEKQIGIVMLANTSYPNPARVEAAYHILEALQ

SMILES	IC50 [1] [nM]	IC50 [2] [nM]	IC50 [3] [nM]	MIC (μg/mL) of Exemplary Compounds in presence of fixed β-lactams: K. p. 11978 OXA-48 [4]	MIC (μg/mL) of Exemplary Compounds in presence of fixed β-lactams: E. coli ESBL4 CTX-M-15 [5]	IC50 [6] [nM]	MIC (μg/mL) of Exemplary Compounds in presence of fixed β-lactams: E. cl. 144200 p99 AmpC [7]	MIC (μg/mL) of Exemplary Compounds in presence of fixed β-lactams: K. p. 156319 KPC-3 [8]	IC50 [9] [nM]	MIC (μg/mL) of Exemplary Compounds in presence of fixed β-lactams: K. p. A-1797 KPC-2 VIM-4 [10]	MIC (μg/mL) of Exemplary Compounds in presence of fixed β-lactams: P. aerug. 2775 VIM-2 [11]
NCc1cn(CC(=O)N[C@H]2Cc3cccc(C(=O)O)c3OB2O)nn1 [Example 2, (R)-3-(2-(4-(aminomethyl)-1H-1,2,3-triazol-1-yl)acetamido)-2-hydroxy-3,4-dihydro-2H-benzo[e][1,2]oxaborinine-8-carboxylic acid]	< 100	100 to 1000	< 100	B (B represents an MIC between 1 and 16 μg/mL inclusive)	C (C represents an MIC of <1 μg/mL)	< 100	C (C represents an MIC of <1 μg/mL)	C (C represents an MIC of <1 μg/mL)	< 100	C (C represents an MIC of <1 μg/mL)	C (C represents an MIC of <1 μg/mL)
N=C(N)NCc1cn(CC(=O)N[C@H]2Cc3cccc(C(=O)O)c3OB2O)nn1 [Example 3, (R)-3-(2-(4-(guanidinomethyl)-1H-1,2,3-triazol-1-yl)acetamido)-2-hydroxy-3,4-dihydro-2H-benzo[e][1,2]oxaborinine-8-carboxylic acid]	< 100	< 100	< 100	C (C represents an MIC of <1 μg/mL)	C (C represents an MIC of <1 μg/mL)	< 100	C (C represents an MIC of <1 μg/mL)	C (C represents an MIC of <1 μg/mL)	< 100	C (C represents an MIC of <1 μg/mL)	C (C represents an MIC of <1 μg/mL)
CC(C)NCc1cn(CC(=O)N[C@H]2Cc3cccc(C(=O)O)c3OB2O)nn1 [Example 4, (R)-2-hydroxy-3-(2-(4-((isopropylamino)methyl)-1H-1,2,3-triazol-1-yl)acetamido)-3,4-dihydro-2H-benzo[e][1,2]oxaborinine-8-carboxylic acid]	< 100	< 100	< 100	B (B represents an MIC between 1 and 16 μg/mL inclusive)	C (C represents an MIC of <1 μg/mL)	100 to 1000	C (C represents an MIC of <1 μg/mL)	B (B represents an MIC between 1 and 16 μg/mL inclusive)	100 to 1000	C (C represents an MIC of <1 μg/mL)	C (C represents an MIC of <1 μg/mL)
CC(C)NCCc1cn(CC(=O)N[C@H]2Cc3cccc(C(=O)O)c3OB2O)nn1 [Example 7, (R)-2-hydroxy-3-(2-(4-(2-(isopropylamino)ethyl)-1H-1,2,3-triazol-1-yl)acetamido)-3,4-dihydro-2H-benzo[e][1,2]oxaborinine-8-carboxylic acid]	< 100	1000 to 10000	1000 to 10000	B (B represents an MIC between 1 and 16 μg/mL inclusive)	C (C represents an MIC of <1 μg/mL)	100 to 1000	C (C represents an MIC of <1 μg/mL)	C (C represents an MIC of <1 μg/mL)	1000 to 10000	B (B represents an MIC between 1 and 16 μg/mL inclusive)	C (C represents an MIC of <1 μg/mL)
O=C(Cn1nnc(CO)c1CO)N[C@H]1Cc2cccc(C(=O)O)c2OB1O [Example 8, (R)-3-(2-(4,5-bis(hydroxymethyl)-1H-1,2,3-triazol-1-yl)acetamido)-2-hydroxy-3,4-dihydro-2H-benzo[e][1,2]oxaborinine-8-carboxylic acid]	1000 to 10000	100 to 1000	1000 to 10000	B (B represents an MIC between 1 and 16 μg/mL inclusive)	C (C represents an MIC of <1 μg/mL)	< 100	C (C represents an MIC of <1 μg/mL)	B (B represents an MIC between 1 and 16 μg/mL inclusive)	100 to 1000	B (B represents an MIC between 1 and 16 μg/mL inclusive)	B (B represents an MIC between 1 and 16 μg/mL inclusive)
O=C(Cn1cc(-c2cccnc2)nn1)N[C@H]1Cc2cccc(C(=O)O)c2OB1O [Example 12, (R)-2-hydroxy-3-(2-(4-(pyridin-3-yl)-1H-1,2,3-triazol-1-yl)acetamido)-3,4-dihydro-2H-benzo[e][1,2]oxaborinine-8-carboxylic acid]	< 100	100 to 1000	1000 to 10000	B (B represents an MIC between 1 and 16 μg/mL inclusive)	C (C represents an MIC of <1 μg/mL)	< 100	C (C represents an MIC of <1 μg/mL)	B (B represents an MIC between 1 and 16 μg/mL inclusive)	< 100	A (A represents an MIC>16 μg/mL)	B (B represents an MIC between 1 and 16 μg/mL inclusive)
NCc1cnnn1CC(=O)N[C@H]1Cc2cccc(C(=O)O)c2OB1O [Example 13, (R)-3-(2-(5-(aminomethyl)-1H-1,2,3-triazol-1-yl)acetamido)-2-hydroxy-3,4-dihydro-2H-benzo[e][1,2]oxaborinine-8-carboxylic acid]	< 100	100 to 1000	100 to 1000	B (B represents an MIC between 1 and 16 μg/mL inclusive)	B (B represents an MIC between 1 and 16 μg/mL inclusive)	100 to 1000	C (C represents an MIC of <1 μg/mL)	B (B represents an MIC between 1 and 16 μg/mL inclusive)	< 100	B (B represents an MIC between 1 and 16 μg/mL inclusive)	B (B represents an MIC between 1 and 16 μg/mL inclusive)
